Patent publication US7355074B2, “Compounds having aromatic rings and side-chain amide-functionality and a method for transporting monovalent anions across biological membranes using the same” (The University of Maryland, priority 2003, dated 2008)

Experiments:
Format in all cases: biochemical
[1] = pH-assisted fluorimetric transport assay with calixarene amides (HPTS-loaded liposomes); details: extravesicular Na, K or Cs chloride; ligand lipid ratios of up to 1:20
Method: The ability of 1 and 2 to mediate ion flux across a lipid bilayer was studied fluorimetrically. A solution of 1 or 2 was added to a suspension of EYPC large unilamellar vesicles (LUVs) containing the pH-sensitive dye pyranine. An NaOH solution was added to the extravesicular buffer to create a gradient of approximately one pH unit. The resulting electrostatic potential, caused by proton efflux from the liposomes, can be compensated by cation influx or anion efflux, as mediated by the exogenous ligand. Ion transport across the membrane was signaled by the increase in relative fluorescence that accompanied the rise in intravesicular pH.
Liposome Preparation. EYPC HPTS-Containing LUVs, egg yolk 1-α-phosphatidylcholine (EYPC, 60 mg, […]) was dissolved in a CHCl3MeOH mixture, the solution was evaporated under reduced pressure, and the resulting thin film was dried under high vacuum for 2 h. The lipid film was hydrated in 1.2 mL of phosphate buffer (10 mM sodium phosphage, pH=6.4, 75-100 mM MX, M=Na^+, K^+, Cs^+, X=[…], SO4^2−) containing 10 μM HPTS (pyranine 8-hydroxypyrene-1,3,6-trisulfonic acid trisodium salt) for 2 h. The LUV suspension (1 mL) was submitted to high-pressure extrusion at room temperature (2) extrusions through a 0.1 μM polycarbonate membrane afforded LUVs with a diameter of 100 nm). The LUV suspension was separated from extravesicular dye by size exclusion chromatography (SEC) stationary phase: Sephadex G-10, mobile phase:phosphate buffer) and diluted with the same phosphate buffer to give a stock solution with a lipid concentration of 11 mM (assuming 100% of lipid was incorporated into liposomes).
Fluorimetric Transport Assays. pH-Assisted Transport Assays. Typically, 100 μL of HPTS-loaded vesicles (stock solution) was suspended in 1.85 mL of the corresponding buffer and placed into a fluorimetric cell. HPTS emission at 510 nm was monitored with excitation wavelengths at 403 and 460 nm simultaneously. During the experiment, 20 μL of a 0-10 mM THF solution of the compound of interest was added through an injection port, followed by injection of 21 μL of 0.5 M aqueous NaOH. Addition of the NaOH caused a pH increase of approximately 1 pH unit in the extravesicular buffer. Maximal changes in dye emission were obtained at the end of each experiment by lysis of the liposomes with detergent (40 μL of 5% aqueous Triton x100). The final transport trace was obtained as a ratio of the emission intensities monitored at 460 and 403 nm and normalized to 100% of transport.

[2] = pH-stat fluorescent transport assay with oligophenoxyacetamides (HPTS-loaded liposomes); details: 100 mM NaCl inside and outside
Method: FIGS. 1A and 1B are derived from of pH-stat fluorescent assays with oligophenoxyacetamide compounds 1-6 described herein. Suspensions of EYPC LUVs containing the pH sensitive dye pyranine (ex 405 nm and 460 nm em 510 nm) in a phosphate buffer were used (0.5 mM of lipid, 10 mM NanH3-nPO4 n=1, 2, pH 6.4 100 mM NaCl inside and outside) (A) illustrates initial pseudo-first order rate constants in the presence of 5 μm of ionophores 1-6 (1 mol % injection of 20 μl of 0.5 mM DMSO solution of 1-6 into 1.9 mL of vesicular suspension was followed by injection of 21 μl of 0.5 M NaOH and final lysis of liposomes with Triton X-100; (B) illustrates initial pseudo-first order rate constants assessed for various concentrations of oligomeric ionophores 2-6. The same experimental protocol as in (A) was used. Legend for traces denotes use of oligocompounds 2, 3, 4, 5, 6.
(§1) Liposome Preparation for Fluorimetric Assays. Egg yolk L-α-phosphatidylcholine (EYPC ethanol solution, […], 79 μmol) was dissolved in a CHCl3/MeOH mixture, the solution was evaporated under reduced pressure and the resulting thin film was dried under high vacuum for 2 h. The lipid film was hydrated in 1.2 mL of phosphate buffer (10 mM sodium phosphate, pH=6.4, 75-100 mM MnX, M=N^+, K^+, X=Cl^−, SO4^2−, n=1,2) containing 10 μM HPTS (pyranine, 8-hydroxypyrene-1,3,6-trisulfonic acid trisodium salt) for 40 min. During hydration, the suspension was submitted to 5 freeze-thaw cycle (liquid nitrogen, water at rt). The large multilamellar liposome suspension (1 mL) was submitted to high-pressure extrusion at rt (21 extrusions through a 0.1 μm polycarbonate membrane afforded a suspension of LUVs with an average diameter of 100 nm). The LUV suspension was separated from extravesicular dye by size exclusion chromatography (SEC) (stationary phase: Sephadex G-10, mobile phase: phosphate buffer) and diluted with the same phosphate buffer to give a stock solution with a lipid concentration of 11 mM (assuming 100% of lipid was incorporated into liposomes).
pH-state transport assays. Typically, 100 μL of HPTS-loaded vesicles (stock solution) was suspended in 1.9 mL of the corresponding buffer and placed into a fluorimetric cell. The emission of HPTS at 510 nm was monitored with excitation wavelengths at 403 and 460 nm simultaneously. During the experiment, 20 μL of a 0-10 mM DMSO solution of the compounds of interest was added (through an injection port), followed by injection of 21 μL of 0.5 M aqueous NaOH. […] Maximal possible changes in dye emission were obtained at the end of each experiment by lysis of the liposomes with detergent (40 μL of 5% aqueous Triton X100). The final transport trace was obtained as a ratio of the emission intensities monitored at 460 and 403 nm and normalized to 100% of transport. Pseudo-first order rate constants were calculated from slopes of the plot of In([H^+ins]−[H^+out]) versus time, here [H^+ins] and [H^+out] are the intravesicular and extravesicular proton concentrations, respectively. The [H^+out] was assumed to remain constant over the course of the experiment, while [H^+ins] values were calculated for each point from the HPTS emission intensities according to the calibration equation pH=1.1684·log(Io/Il)+6.9807, where Io is the emission intensity with excitation at 460 nm and Il is emission intensity with excitation at 403 nm. The calibration was performed by measuring the HPTS emission intensities and the pH values of a […] HPTS solution in 10 mM phosphate buffer containing 100 mM NaCl (see FIG. s3). The absolute values for rate constants varied depending on the age of the vesicular solution and the actual stock solution of liposomes used.

[3] = pH changes in liposomes experiencing a Cl- gradient (oligophenoxyacetamides); details: NaCl-loaded liposomes in Na2SO4 buffer; for alkalinization of the vesicular compartment: equal amount (4 mol %)
Method: FIG. 2B illustrates alkanization of the vesicular aqueous compartment upon application of compounds 1-6 to a suspension of NaCl-containing vesicles in isosmomolar Na2SO4 buffer. Concentration of compounds 1-6 in the vesicular suspension was 20 μm (4 mol %). Legend for traces denotes use of oligocompounds 1, 2, 3, 4, 5, 6.
as §1
(§2) Analysis of pH changes in the liposomes experiencing a CT gradient. a) Outwardly directed gradient of Cl:HPTS-loaded vesicles (100 μL of the stock solution), filled with a saline phosphate buffer (10 mM sodium phosphate, pH 6.4, 100 mM NaCl) were suspended in 1.9 mL of an isosmotic phosphate sulfate buffer (10 mM sodium phosphate, pH 6.0, 75 mM Na2SO4) and placed into a fluorimetric cell. The emission of HPTS at 510 nm was monitored with excitation wavelengths at 403 and 460 nm simultaneously. During the experiment, 20 μL of a 0-2 mM DMSO solution of the compound of interest was added through an injection port. Intravesicular pH values were obtained as described for pH-stat transport assays. At the end of experiment, the aqueous compartment of liposomes was equilibrated with extravesicular solution by lysis of liposomes with detergent (40 μL of 5% aqueous Triton X100). b) Inwardly directed gradient of Cl:HPTS-loaded vesicles (100 μL of the stock solution), filled with a isoosimomolar sulfate phosphate buffer (10 mM sodium phosphate, pH 6.0, 75 mM Na2SO4) were suspended in 1.9 mL of an isosmotic phosphate saline buffer (10 mM sodium phosphate, pH 6.4, 100 mM NaCl) and placed into a fluorimetric cell. Further analysis was conducted as described for the case of an outwardly directed gradient of […]. Analysis of the electrostatic potential on the surface of liposomes. LUVs (100 μL of stock solution, 100 mM KCl inside and outside or 75 mM Na2SO4 inside and outside) were suspended in 1.9 mL of 100 mM NaCl buffer containing 60 nM safranin O (a potential-sensitive dye). Safranin O emission was monitored at 580 nm with excitation at 520 nm. During the course of the experiment, 20 μL of a 0-0.12 mM DMSO solution of valinomycin or 0-2 mM of 3-8 DMSO solution was added. Experiments were completed by injection of 20 μL of 1 mM aqueous solution of the defect-inductive peptide melittin.

[4] = liposome potential assay with safranin O; details: Na2SO4 vesicles in NaCl buffer (conditions of the trimer)
Method: FIG. 3 illustrates liposome potential assays. Suspension of EYPC LUVs in phosphate buffer was used (10 m M Nan H3-n PO4, n=1, 2, pH 6.4, 100 m M KCl or 75 m M Na2 H3-n PO4, n=1, 2, pH 6.4, 100 m M KCl or 75 m M NA2 SO4 inside and 100 m M NaCl, 60 nM safranin O, ex 480 nm, em 520 nm, outside). Legend for trace denotes the formation of potential in: —KCl vesicles upon application of valinmycin·Na2SO4 vesicles upon application of 3, —KCl vesicles upon application of 3, —Na2SO4 vesicles upon application of valinomycin.
as §2

Structure (SMILES): CNC(=O)COc1c2cccc1Cc1cccc(c1OCC(=O)NC)Cc1cccc(c1OCC(=O)NC)Cc1cccc(c1OCC(=O)NC)C2 [Calix[4]arene tetramethylamide 1, Calix[4]arene tetramethylamide]
- transport activity [1]: little transport activity

Structure (SMILES): CCCCNC(=O)COc1ccccc1Cc1ccccc1OCC(=O)NCCCC [Dimer 2, bis-(N-butyl-2-phenoxyacetamide)]
- transport activity ([2]; below 4 mol % (20 μm)): moderate transport activity
- alkalinization of the vesicular compartment [3]: Alkanization of the vesicular compartment was observed

Structure (SMILES): CCCCNC(=O)COc1ccccc1Cc1cccc(Cc2cccc(Cc3cccc(Cc4cccc(Cc5ccccc5OCC(=O)NCCCC)c4OCC(=O)NCCCC)c3OCC(=O)NCCCC)c2OCC(=O)NCCCC)c1OCC(=O)NCCCC [hexamer 6, Hexakis-(N-butyl-2-phenoxyacetamide)]
- alkalinization of the vesicular compartment [3]: Alkanization of the vesicular compartment was observed

Structure (SMILES): CCCCNC(=O)COc1ccccc1Cc1cccc(Cc2cccc(Cc3cccc(Cc4ccccc4OCC(=O)NCCCC)c3OCC(=O)NCCCC)c2OCC(=O)NCCCC)c1OCC(=O)NCCCC [pentamer 5, Pentakis-(N-butyl-2-phenoxyacetamide)]
- alkalinization of the vesicular compartment [3]: Alkanization of the vesicular compartment was observed

Structure (SMILES): CCCCNC(=O)COc1ccccc1Cc1cccc(Cc2cccc(Cc3ccccc3OCC(=O)NCCCC)c2OCC(=O)NCCCC)c1OCC(=O)NCCCC [tetramer 4, Tetrakis-(N-butyl-2-phenoxyacetamide)]
- relative transport activity within the series 1-6 [2]: generally more effective than pentamer 5 and hexamer 6
- pH gradient generated ([3]; 4 mol %): the same pH gradient
- time to reach the pH gradient ([3]; 4 mol %): 4.5 minutes
- relative ability to alter the pH in liposomes under a Cl− gradient [3]: less active than trimer 3

Structure (SMILES): CC(C)[C@@H]1NC(=O)[C@H](C)OC(=O)[C@@H](C(C)C)NC(=O)[C@@H](C(C)C)OC(=O)[C@H](C(C)C)NC(=O)[C@H](C)OC(=O)[C@@H](C(C)C)NC(=O)[C@@H](C(C)C)OC(=O)[C@H](C(C)C)NC(=O)[C@H](C)OC(=O)[C@@H](C(C)C)NC(=O)[C@@H](C(C)C)OC1=O [valinomycin, reference compound]
- ability to create a transmembrane potential [4]: cannot create a potential
